Key:
[1] = system: mice with ISO-induced myocardial ischemia; assay: Serum myocardial enzyme CK-MB (ELISA) in mice with ISO-induced myocardial ischemia; type: in vivo, Kunming mice; details: ISO model mice; dianthrone 10 mg/kg intragastric or diltiazem 20 mg/kg intraperitoneal once a day for 10 days; serum 2 h after final ISO; n=7-10
Experimental: (§1) Male Kunming mice were acclimatized and randomly divided into four groups: a blank control group, an ISO model group, an ISO+diltiazem 20 mg.kg^1 positive control group, and an ISO+dianthrone 10 mgkgi group. Mice in the dianthrone group were intragastrically given the corresponding dose of dianthrone once a day, those in the diltiazem group were intraperitoneally given once a day, and those in the blank control group and the model group were given the same dose of solvent (both of which were 10 mL. kg) for 10 consecutive days. On day 4 of administration, the mice in each group were injected subcutaneously with 40 mg.kg^1 ISO once; the concentration of ISO subcutaneous injection was adjusted to 20 mg.kg^- on days 5 to 10 of administration. All mice were modeled at 2 h after administration. On the final day, the animals were treated at 2 h after ISO administration and modeling. Animal weights were recorded during the experiment. […]
(§2) Assay for biomarker for myocardial injury and myocardial enzyme: The blood was drawn from the orbit of the mouse, let stand at room temperature for 2 h, and centrifuged at 3,500 rpm for 20 min to separate the serum. The serum levels of CK-MB and cTn-T were detected according to the ELISA kit instructions.

[2] = system: mice with ISO-induced myocardial ischemia; assay: Serum biomarker for myocardial injury cTn-T (ELISA) in mice with ISO-induced myocardial ischemia; type: in vivo, Kunming mice; details: ISO model mice; dianthrone 10 mg/kg intragastric or diltiazem 20 mg/kg intraperitoneal once a day for 10 days; serum 2 h after final ISO; n=7-10
Experimental: as §1, §2

COc1ccc([C@@H]2Sc3ccccc3N(CCN(C)C)C(=O)[C@@H]2OC(C)=O)cc1 [Diltiazem, diltiazem]
CK-MB (serum) [1]: 7.11 ± 1.63 ng/mL | cTn-T (serum) [2]: 273.93 ± 36.17 ng/L

Reference: patent US20230087361A1, “USE OF DIANTHRONE COMPOUND IN PREPARATION OF MEDICAMENT FOR PREVENTION AND/OR TREATMENT OF MYOCARDIAL ISCHEMIC DISEASE AND RELATED DISEASE THEREOF” (National Institutes for Food and Drug Control, priority 2021, published 2023)
